Entries after “also recorded” stand apart in the source; their conditions may differ. Where two headings read alike, the source gives them in different places.
Experiments:
NCI-H23 [1] = assay: MECP in cancer cell line; type: cell-based; settings: Homo sapiens
Method in brief: (§1)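 Cells grown in DMEM with 5% FBS at 37° C, 5% CO2, then treated at 1 nM to 30 μM. Imaging at 24, 48 or 72 h scored mitotic arrest or DNA-content change; hits show transient mitotic-index rise at 24 h and polyploid accumulation at 48 h; values binned A (≤1.0 μM) to D (>30.0 μM).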

NCI-N87 [2] = assay: MECP in cancer cell line; type: cell-based; settings: Homo sapiens
Method in brief: as §1

[3] = system: human lung adenocarcinoma cell line NCI-H23; assay: Xenograft assay; type: in vivo; settings: Nu/Nu mice, 25 mg/kg oral gavage twice a day for 7 days
Procedure: (§2) Xenografts were initiated in immunocompromised (Nu/Nu) mice with the human lung adenocarcinoma cell line NCI-H23 (FIG. 4A) and the human breast cancer cell line MDA-MB-231 (FIG. 4B). Seven million cells were injected subcutaneously into each mouse and treatment was initiated when the average tumor volumes reached 150 mm3 (n=5/group). Tumor-bearing mice were randomized into different groups to receive either vehicle or indicated compounds. The compounds were administered through oral gavage twice a day for 7 days. For these experiments, all compounds were first dissolved in DMSO and then diluted 1:10 into a mixture containing 50% PEG300 and 49% PBS, 1% Tween 80, pH2.2. 100 ul of drug solution was administered with each dose to each a dose of 25 mg/kg. Tumor volumes were determined from digital caliper raw data by using the formula: Volume (mm3)=(L×W^2)/2. The value W (Width) is the smaller of two perpendicular tumor axes and the value L (Length) is the larger of two perpendicular axes. Mean tumor volumes were calculated for each treatment group at the start point (day 0) and the endpoint (day 7). The percentage change of tumor volumes, defined as (Tumor […]˜Tumor Volume^day0)/Tumor Volume^day0×100% is presented.

[4] = system: human breast cancer cell line MDA-MB-231; assay: Xenograft assay; type: in vivo; settings: MDA-MB-231 xenograft, Nu/Nu mice, 25 mg/kg oral gavage twice a day for 7 days
Procedure: as §2

NCI-H23 [5] = assay: MTT assay of cellular proliferation; type: cell-based; settings: Homo sapiens, 50% inhibition of cellular proliferation
Method in brief: (§3)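 EC50 values reflect the compound concentration that halved proliferation, judged by mitochondrial reduction of MTT to formazan measured at A570. Drug exposure spanned 1 nM to 30 μM after cells reached 20-30% confluence in DMEM with 5% FBS.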

T2 HCC [6] = assay: MTT assay of cellular proliferation; type: cell-based; settings: Mus musculus, 50% inhibition of cellular proliferation
Method in brief: as §3

A549 [7] = assay: MTT assay of cellular proliferation; type: cell-based; settings: Homo sapiens, 50% inhibition of cellular proliferation
Method in brief: as §3

SW480 [8] = assay: MTT assay of cellular proliferation; type: cell-based; settings: Homo sapiens, 50% inhibition of cellular proliferation
Method in brief: as §3

MDA-MB-231 [9] = assay: MTT assay of cellular proliferation; type: cell-based; settings: Homo sapiens; MDA-MB-231, MTT, 50% inhibition of cellular proliferation
Method in brief: as §3

Hela [10] = assay: MTT assay of cellular proliferation; type: cell-based; settings: Homo sapiens, 50% inhibition of cellular proliferation
Method in brief: as §3

HCT116 [11] = assay: MTT assay of cellular proliferation; type: cell-based; settings: Homo sapiens, HCT-116, 50% inhibition of cellular proliferation
Method in brief: as §3

NCI-N87 [12] = assay: MTT assay of cellular proliferation; type: cell-based; settings: Homo sapiens, 50% inhibition of cellular proliferation
Method in brief: as §3

T2 HCC [13] = assay: MECP in cancer cell line; type: cell-based; settings: Mus musculus
Method in brief: as §1

A549 [14] = assay: MECP in cancer cell line; type: cell-based; settings: Homo sapiens
Method in brief: as §1

SW480 [15] = assay: MECP in cancer cell line; type: cell-based; settings: Homo sapiens
Method in brief: as §1

MDA-MB-231 [16] = assay: MECP in cancer cell line; type: cell-based; settings: Homo sapiens
Method in brief: as §1

Hela [17] = assay: MECP in cancer cell line; type: cell-based; settings: Homo sapiens
Method in brief: as §1

HCT116 [18] = assay: MECP in cancer cell line; type: cell-based; settings: Homo sapiens, HCT-116
Method in brief: as §1

RPEMYC^H2B-GFP cells = assay: Phenotypic screening assay (mitotic arrest, polyploidy); type: cell-based; settings: 1 nM to 30 μM; for IC50: read-out: Proliferative arrest (>50%)
Method in brief: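 RPE cells expressing MYC and H2B-EGFP treated with compound at 1 nM–30 μM; mitotic index scored at 24 h and polyploidy (DNA content) at 48 h by automated imaging, with reads at 24, 48 or 72 h. Hits show transient mitotic arrest followed by polyploid accumulation.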

[19] = read-out: Min. Effective conc. for Polyploidy (≥5%)

| SMILES | minimal effective concentration (NCI-H23 [1]) [µM] | minimal effective concentration (NCI-N87 [2]) [µM] | tumor growth (percentage change of tumor volumes) [3] | tumor growth (percentage change of tumor volumes) [4] | EC50 (NCI-H23 [5]) [nM] | EC50 (T2 HCC [6]) [nM] | EC50 (A549 [7]) [nM] | EC50 (SW480 [8]) [nM] | EC50 (MDA-MB-231 [9]) [nM] | EC50 (Hela [10]) [nM] | EC50 (HCT116 [11]) [nM] | EC50 (NCI-N87 [12]) [nM] | minimal effective concentration (T2 HCC [13]) [µM] | minimal effective concentration (A549 [14]) [µM] | minimal effective concentration (SW480 [15]) [µM] | minimal effective concentration (MDA-MB-231 [16]) [µM] | minimal effective concentration (Hela [17]) [µM] | minimal effective concentration (HCT116 [18]) [µM] | minimal effective concentration (RPEMYC^H2B-GFP cells; [19]) [µM] | minimal effective concentration (RPEMYC^H2B-GFP cells; read-out: Mitotic Arrest (≥5%)) [µM] | further results |
| --- | --- | --- | --- | --- | --- | --- | --- | --- | --- | --- | --- | --- | --- | --- | --- | --- | --- | --- | --- | --- | --- |
| COc1cc(Oc2ccnc3ccsc23)cc(-n2cccn2)c1 [Compound 40, 7-(3-methoxy-5-(1H-pyrazol-1-yl)phenoxy)thieno[3,2-b]pyridine] | 0.001 to 1 | 0.001 to 1 | suppress the growth; also recorded: suppressing the tumor growth | suppress the growth; also recorded: suppressing the tumor growth | 1 to 1000 | 1 to 1000 | 1 to 1000 | 1 to 1000 | 1 to 1000 | 1 to 1000 | 1 to 1000 | 1 to 1000 | 0.001 to 1 | 0.001 to 1 | 0.001 to 1 | 0.001 to 1 | 0.001 to 1 | 0.001 to 1 | 0.001 to 1 | 0.001 to 1 | IC50 (RPEMYC^H2B-GFP cells): 1 to 1000 nM |
| COc1cc(NC(C)=O)cc(Oc2ccnc3ccsc23)c1 [Compound 43, N-(3-methoxy-5-(thieno[3,2-b]pyridin-7-yloxy)phenyl)acetamide] | 0.001 to 1 | 0.001 to 1 | suppress the growth; also recorded: suppressing the tumor growth and even eliciting tumor regression | suppress the growth; also recorded: suppressing the tumor growth and even eliciting tumor regression | 1 to 1000 | 1 to 1000 | 1 to 1000 | 1 to 1000 | 1 to 1000 | 1 to 1000 | 1 to 1000 | 1 to 1000 | 0.001 to 1 | 0.001 to 1 | 0.001 to 1 | 0.001 to 1 | 0.001 to 1 | 0.001 to 1 | 0.001 to 1 | 0.001 to 1 | IC50 (RPEMYC^H2B-GFP cells): 1 to 1000 nM |
| COc1cc(Oc2ccnc3ccc(Br)cc23)cc(-n2cccn2)c1 [Compound 21, 6-bromo-4-(3-methoxy-5-(1H-pyrazol-1-yl)phenoxy)quinoline] | 0.001 to 1 | 0.001 to 1 | suppress the growth; also recorded: suppressing the tumor growth | suppress the growth; also recorded: suppressing the tumor growth | 1 to 1000 | 1 to 1000 | 1 to 1000 | 1 to 1000 | 1 to 1000 | 1 to 1000 | 1 to 1000 | 1 to 1000 | 0.001 to 1 | 0.001 to 1 | 0.001 to 1 | 0.001 to 1 | 0.001 to 1 | 0.001 to 1 | 0.001 to 1 | 0.001 to 1 | IC50 (RPEMYC^H2B-GFP cells): 1 to 1000 nM |
